According to paper PMC5291822 (Bioorganic & medicinal chemistry, 2016):

Columns and labels:
[1] = system: magnesium-dependent phosphatidate phosphohydrolase-1; conditions: off-target; cited from earlier work
human GIVA cPLA2 [2] = target: T1, human GIVA cPLA2 (Homo sapiens, UniProt P47712); conditions: 0.091 mol fraction; reference inhibitor; cited from earlier work
T1 sequence (P47712 1-749): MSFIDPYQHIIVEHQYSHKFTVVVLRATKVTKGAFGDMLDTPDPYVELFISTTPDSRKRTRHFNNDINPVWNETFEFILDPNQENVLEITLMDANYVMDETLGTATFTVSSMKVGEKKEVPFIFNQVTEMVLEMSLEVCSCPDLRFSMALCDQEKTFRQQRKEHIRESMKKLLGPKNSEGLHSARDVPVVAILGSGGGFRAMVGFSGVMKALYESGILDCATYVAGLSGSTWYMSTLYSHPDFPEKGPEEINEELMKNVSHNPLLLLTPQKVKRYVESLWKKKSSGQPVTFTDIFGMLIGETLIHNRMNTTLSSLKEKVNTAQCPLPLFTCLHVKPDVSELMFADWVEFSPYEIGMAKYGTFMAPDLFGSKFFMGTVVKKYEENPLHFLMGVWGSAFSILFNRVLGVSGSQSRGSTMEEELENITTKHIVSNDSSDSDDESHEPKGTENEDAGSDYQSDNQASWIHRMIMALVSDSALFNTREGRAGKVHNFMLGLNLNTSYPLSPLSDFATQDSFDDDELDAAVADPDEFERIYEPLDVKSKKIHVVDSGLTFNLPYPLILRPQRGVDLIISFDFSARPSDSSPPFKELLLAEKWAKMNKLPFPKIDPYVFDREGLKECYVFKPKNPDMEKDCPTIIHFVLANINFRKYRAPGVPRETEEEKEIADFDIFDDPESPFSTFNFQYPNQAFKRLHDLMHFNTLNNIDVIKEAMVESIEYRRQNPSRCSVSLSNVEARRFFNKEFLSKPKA

[3] = system: experimental autoimmune encephalomyelitis; conditions: cited from earlier work
human GV sPLA2 = target: T2, human GV sPLA2 (Homo sapiens, UniProt P39877); test: mixed micelle modified Dole assay, GV sPLA2; format: biochemical
T2 sequence (P39877 21-138): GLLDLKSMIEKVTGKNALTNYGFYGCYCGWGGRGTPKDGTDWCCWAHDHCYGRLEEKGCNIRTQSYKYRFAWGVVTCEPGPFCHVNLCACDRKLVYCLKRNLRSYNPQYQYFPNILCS

human GIVA cPLA2 [4] = target: T1, human GIVA cPLA2; test: mixed micelle modified Dole assay, GIVA cPLA2; format: biochemical

## O=C1O/C(=C/Br)CCC1c1cccc2ccccc12 (centres unmarked) [BEL, Bromoenol lactone]
[1]
  inhibition of magnesium-dependent phosphatidate phosphohydrolase-1 (in words): able to inhibit

## O=C(CCCCc1ccccc1)C(F)(F)C(F)(F)F [FKGK11]
Human GIVA cPLA2 [2]
  % Inhbition GIVA cPLA2: N.D.[17] (N.D. signifies compounds with less than 25% inhibition (or no detectable inhibition).)
[3]
  clinical severity and progression of experimental autoimmune encephalomyelitis: strong reduction in the clinical severity and progression

## CCCC[C@H](NC(=O)C(=O)CCCCc1ccc(OC)cc1)C(=O)NCC(=O)OC(C)(C)C [compound 12c, (S)-tert-Butyl 2-(2-(6-(4-methoxyphenyl)-2-oxohexanamido)hexanamido)acetate]
Human GV sPLA2
  inhibition of GV sPLA2 (in words): weak inhibition
Human GIVA cPLA2 [4]
  inhibition of GIVA cPLA2 (in words): weak inhibition
